Assay results taken from ChEMBL document CHEMBL3102771, “Regioselective synthesis of 3-benzyl substituted pyrimidino chromen-2-ones and evaluation of anti-microbial and anti-biofilm activities” (2014).
≈ marks a conversion by molar mass, not a printed value. Calls of active or inactive are those of the source. The rule behind the calls is not given here.

Key:
Format in all cases: functional
Staphylococcus aureus [1] = assay: Antibiofilm activity against Staphylococcus aureus MLS-16 MTCC 2940 after 24 hrs by crystal violet staining technique
Staphylococcus aureus [2] = assay: Antimicrobial activity against Staphylococcus aureus MTCC 96 assessed as growth inhibition after 24 hrs by well diffusion method; details: MTCC 96, 24 h
Bacillus subtilis = assay: Antimicrobial activity against Bacillus subtilis MTCC 121 assessed as growth inhibition after 24 hrs by well diffusion method; details: MTCC 121, 24 h
Pseudomonas aeruginosa [3] = assay: Antibiofilm activity against Pseudomonas aeruginosa MTCC 2453 after 24 hrs by crystal violet staining technique
Staphylococcus aureus [4] = assay: Antimicrobial activity against Staphylococcus aureus MLS-16 MTCC 2940 assessed as growth inhibition after 24 hrs by well diffusion method; details: MLS-16 MTCC 2940, 24 h
Staphylococcus aureus [5] = assay: Antibiofilm activity against Staphylococcus aureus MTCC 96 after 24 hrs by crystal violet staining technique
Pseudomonas aeruginosa [6] = assay: Antimicrobial activity against Pseudomonas aeruginosa MTCC 2453 assessed as growth inhibition after 24 hrs by well diffusion method; details: MTCC 2453, 24 h
Micrococcus luteus = assay: Antimicrobial activity against Micrococcus luteus MTCC 2470 assessed as growth inhibition after 24 hrs by well diffusion method; details: MTCC 2470, 24 h

Row | SMILES | MBEC (Staphylococcus aureus [1]) | MIC (Staphylococcus aureus [2]) [µg/mL] | MIC (Bacillus subtilis) [µg/mL] | MBEC (Pseudomonas aeruginosa [3]) | MIC (Staphylococcus aureus [4]) [µg/mL] | MBEC (Staphylococcus aureus [5]) | MIC (Pseudomonas aeruginosa [6]) [µg/mL] | MIC (Micrococcus luteus) [µg/mL]
1 | Cc1ccc2oc(=O)c(C(c3ccc(C(F)(F)F)cc3)c3c(N)n(C)c(=O)n(C)c3=O)c(O)c2c1 (stereo unspecified) | 20 µg/mL | > 150 | 9.37 (≈ 19.2 µM) | 20 µg/mL | 18.8 (≈ 38.5 µM) | inactive | 9.37 (≈ 19.2 µM) | 18.8 (≈ 38.5 µM)
2 | CCOc1cc(C(c2c(O)c3cc(C)ccc3oc2=O)c2c(N)n(C)c(=O)n(C)c2=O)ccc1O (stereo unspecified) | 10 µg/mL | 75 (≈ 156 µM) | 9.37 (≈ 19.5 µM) | 20 µg/mL | 9.37 (≈ 19.5 µM) | inactive | 9.37 (≈ 19.5 µM) | 9.37 (≈ 19.5 µM)
3 | O=C(O)c1cn(C2CC2)c2cc(N3CCNCC3)c(F)cc2c1=O [CIPROFLOXACIN] | 4 µg/mL | 0.58 (≈ 1.75 µM) | 0.58 (≈ 1.75 µM) | 4 µg/mL | 0.58 (≈ 1.75 µM) | 4 µg/mL | 0.58 (≈ 1.75 µM) | 0.58 (≈ 1.75 µM)
4 | COc1ccc(-c2nn(-c3ccccc3)cc2C(c2c(O)c3cc(F)ccc3oc2=O)c2c(N)n(C)c(=O)n(C)c2=O)cc1 (stereo unspecified) | inactive | 4.68 (≈ 7.86 µM) | 2.34 (≈ 3.93 µM) | inactive | > 150 | 10 µg/mL | > 150 | 2.34 (≈ 3.93 µM)
5 | COc1ccc(C(c2c(O)c3cc(C)ccc3oc2=O)c2c(N)n(C)c(=O)n(C)c2=O)cc1 (stereo unspecified) |  | > 150 | 75 (≈ 167 µM) |  | 75 (≈ 167 µM) |  | > 150 | 75 (≈ 167 µM)
6 | Cn1c(N)c(C(c2ccc(C(F)(F)F)cc2)c2c(O)c3ccc4ccccc4c3oc2=O)c(=O)n(C)c1=O (stereo unspecified) | 10 µg/mL | 9.37 (≈ 17.9 µM) | 9.37 (≈ 17.9 µM) | inactive | 2.34 (≈ 4.47 µM) | 10 µg/mL | > 150 | 18.8 (≈ 35.8 µM)
7 | Cc1ccc2oc(=O)c(C(c3ccc(C(C)C)cc3)c3c(N)n(C)c(=O)n(C)c3=O)c(O)c2c1 (stereo unspecified) |  | > 150 | 9.37 (≈ 20.3 µM) |  | 150 (≈ 325 µM) |  | > 150 | 75 (≈ 163 µM)
8 | COc1ccc(-c2nn(-c3ccccc3)cc2C(c2c(O)c3cc(C)ccc3oc2=O)c2c(N)n(C)c(=O)n(C)c2=O)cc1 (stereo unspecified) | inactive | 4.68 (≈ 7.91 µM) | 2.34 (≈ 3.96 µM) | inactive | > 150 | 10 µg/mL | > 150 | 2.34 (≈ 3.96 µM)
9 | COc1cc(C(c2c(O)c3cc(F)ccc3oc2=O)c2c(N)n(C)c(=O)n(C)c2=O)cc(OC)c1O (stereo unspecified) |  | > 150 | > 150 |  | 37.5 (≈ 75.1 µM) |  | > 150 | 18.8 (≈ 37.5 µM)
10 | Cn1c(N)c(C(c2cn(-c3ccccc3)nc2-c2ccc([N+](=O)[O-])cc2)c2c(O)c3cc(F)ccc3oc2=O)c(=O)n(C)c1=O (stereo unspecified) | inactive | 4.68 (≈ 7.67 µM) | 2.34 (≈ 3.83 µM) | inactive | > 150 | 10 µg/mL | > 150 | 2.34 (≈ 3.83 µM)
11 | Cn1c(N)c(C(c2ccc(C#N)cc2)c2c(O)c3ccc4ccccc4c3oc2=O)c(=O)n(C)c1=O (stereo unspecified) |  | > 150 | 37.5 (≈ 78 µM) |  | 37.5 (≈ 78 µM) |  | > 150 | 150 (≈ 312 µM)
12 | Cc1ccc2oc(=O)c(C(c3ccc(C#N)cc3)c3c(N)n(C)c(=O)n(C)c3=O)c(O)c2c1 (stereo unspecified) |  | > 150 | > 150 |  | 150 (≈ 337 µM) |  | > 150 | > 150
13 | CCCC(c1c(O)c2cc(C)ccc2oc1=O)c1c(N)n(C)c(=O)n(C)c1=O (stereo unspecified) |  | 75 (≈ 195 µM) | 18.8 (≈ 48.6 µM) |  | 75 (≈ 195 µM) |  | > 150 | 75 (≈ 195 µM)
14 | Cc1ccc(-c2nn(-c3ccccc3)cc2C(c2c(O)c3cc(F)ccc3oc2=O)c2c(N)n(C)c(=O)n(C)c2=O)cc1 (stereo unspecified) | inactive | 2.34 (≈ 4.04 µM) | 1.17 (≈ 2.02 µM) | inactive | > 150 | 4 µg/mL | > 150 | 0.58 (≈ 1 µM)
15 | Cc1ccc2oc(=O)c(C(c3cn(-c4ccccc4)nc3-c3ccccc3)c3c(N)n(C)c(=O)n(C)c3=O)c(O)c2c1 (stereo unspecified) | inactive | 4.68 (≈ 8.33 µM) | 2.34 (≈ 4.17 µM) | inactive | > 150 | 10 µg/mL | > 150 | 2.34 (≈ 4.17 µM)
16 | Cc1ccc2oc(=O)c(C(c3ccc(F)cc3)c3c(N)n(C)c(=O)n(C)c3=O)c(O)c2c1 (stereo unspecified) |  | > 150 | 37.5 (≈ 85.7 µM) |  | 150 (≈ 343 µM) |  | > 150 | > 150
17 | COc1ccc(C(c2c(O)c3ccc4ccccc4c3oc2=O)c2c(N)n(C)c(=O)n(C)c2=O)cc1OC (stereo unspecified) |  | > 150 | 18.8 (≈ 36.4 µM) |  | 9.37 (≈ 18.2 µM) |  | > 150 | > 150
18 | Cn1c(N)c(C(c2cn(-c3ccccc3)nc2-c2ccc(Cl)cc2)c2c(O)c3cc(F)ccc3oc2=O)c(=O)n(C)c1=O (stereo unspecified) | inactive | 1.17 (≈ 1.95 µM) | 1.17 (≈ 1.95 µM) | inactive | > 150 | 4 µg/mL | > 150 | 0.58 (≈ 0.967 µM)
19 | Cc1cc(O)c(C(c2ccc(C(F)(F)F)cc2)c2c(N)n(C)c(=O)n(C)c2=O)c(=O)o1 (stereo unspecified) |  | > 150 | 150 (≈ 343 µM) |  | > 150 |  | > 150 | > 150
20 | Cn1c(N)c(C(c2cn(-c3ccccc3)nc2-c2ccccc2)c2c(O)c3cc(F)ccc3oc2=O)c(=O)n(C)c1=O (stereo unspecified) | 4 µg/mL | 2.34 (≈ 4.14 µM) | 4.68 (≈ 8.27 µM) | inactive | 1.17 (≈ 2.07 µM) | 10 µg/mL | > 150 | 2.34 (≈ 4.14 µM)
21 | Cn1c(N)c(C(c2ccc(C#N)cc2)c2c(O)c3cc(F)ccc3oc2=O)c(=O)n(C)c1=O (stereo unspecified) |  | 75 (≈ 167 µM) | 75 (≈ 167 µM) |  | 75 (≈ 167 µM) |  | > 150 | > 150
22 | COc1cc(C(c2c(O)c3cc(F)ccc3oc2=O)c2c(N)n(C)c(=O)n(C)c2=O)ccc1O (stereo unspecified) | 40 µg/mL | 75 (≈ 160 µM) | 9.37 (≈ 20 µM) | inactive | 37.5 (≈ 79.9 µM) | inactive | > 150 | 9.37 (≈ 20 µM)
23 | Cc1cc(O)c(C(c2c(N)n(C)c(=O)n(C)c2=O)C2CCCCC2)c(=O)o1 (stereo unspecified) |  | > 150 | 150 (≈ 400 µM) |  | > 150 |  | > 150 | > 150
